# Source: patent publication US20180273528A1 (LES LABORATOIRES SERVIER, priority 2015, published 2018)
# Key:
# DYRK1A [1] = molecular target: T1, DYRK1A (Homo sapiens, UniProt Q13627); assay: Kinase TR-FRET assay, DYRK1A; type: biochemical; parameters: full-length, wild-type human DYRK1A (NM_001396) with an HA tag; expressed in transfected cells; host or cells: human U2-OS osteosarcoma cells, transient transfection of a pcDNA3.1 plasmid; conditions: full-length human kinase, 10 μM ATP
# Description: (§1) Inhibition of the enzymatic activity of human kinases was evaluated in a Time-Resolved Fluorescence Resonance Energy Transfer (TR-FRET) assay in 384-well reaction plates. […] Test compounds of the invention were added in reaction buffer at a range of concentrations from 0.1 nM to 30 μM. Following addition of EDTA (Sigma E7889, 10 mM) to stop the reaction, Europium-labelled mouse monoclonal antibody recognizing phospho-Thr232 in MBP (Perkin Elmer TRF0201, 1 nM) was added.
# DYRK1A [2] = molecular target: T1, DYRK1A; assay: Cellular DYRK1 autophosphorylation assay in U2-OS cells; type: cell-based; parameters: full-length, wild-type human DYRK1A (NM_001396) with an HA tag; expressed in transfected cells; host or cells: human U2-OS osteosarcoma cells, transient transfection of a pcDNA3.1 plasmid; conditions: U2-OS cells transfected with HA-tagged human DYRK1A, 5 hours exposure; read-out: IC50 (μM) P-Ser520-Dyrk1A -Cell assay
# Method in brief: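 U2-OS cells treated with a compound concentration range for 5 h. Phospho-Ser520-DYRK1A measured by western blot densitometry or Mesoscale ELISA. IC50 from dose-response curves; for blots, ratio of phospho-Ser520 to total DYRK1A signal.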
# [3] = molecular target: T2, His-TEV-DYRK1A Kinase domain (aa127-485) (Homo sapiens, UniProt Q13627); assay: Kinase ADP assay (ADP Hunter), DYRK1A kinase domain; type: biochemical; conditions: 20 μM ATP
# T2 construct: His-TEV-DYRK1A Kinase domain (aa127-485); His tag (N); TEV protease cleavage site (N)
# Method in brief: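 Compounds incubated 10 min at 30 °C with 20 nM enzyme, 40 μM peptide substrate and 20 μM ATP in pH 7.4 Hepes buffer with 10 mM MgCl2. ADP formed detected by ADP Hunter Plus reagents after 20 min at 30 °C, fluorescence read at 590 nm.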
# DYRK1B = molecular target: T3, DYRK1B (Homo sapiens, UniProt Q9Y463); assay: Kinase TR-FRET assay, DYRK1B; type: biochemical; conditions: full-length human kinase, 10 μM ATP
# T3 construct: full-length human kinases from Carna Biosciences; purchased Carna Biosciences 04-131
# T3 sequence (Q9Y463 whole entry): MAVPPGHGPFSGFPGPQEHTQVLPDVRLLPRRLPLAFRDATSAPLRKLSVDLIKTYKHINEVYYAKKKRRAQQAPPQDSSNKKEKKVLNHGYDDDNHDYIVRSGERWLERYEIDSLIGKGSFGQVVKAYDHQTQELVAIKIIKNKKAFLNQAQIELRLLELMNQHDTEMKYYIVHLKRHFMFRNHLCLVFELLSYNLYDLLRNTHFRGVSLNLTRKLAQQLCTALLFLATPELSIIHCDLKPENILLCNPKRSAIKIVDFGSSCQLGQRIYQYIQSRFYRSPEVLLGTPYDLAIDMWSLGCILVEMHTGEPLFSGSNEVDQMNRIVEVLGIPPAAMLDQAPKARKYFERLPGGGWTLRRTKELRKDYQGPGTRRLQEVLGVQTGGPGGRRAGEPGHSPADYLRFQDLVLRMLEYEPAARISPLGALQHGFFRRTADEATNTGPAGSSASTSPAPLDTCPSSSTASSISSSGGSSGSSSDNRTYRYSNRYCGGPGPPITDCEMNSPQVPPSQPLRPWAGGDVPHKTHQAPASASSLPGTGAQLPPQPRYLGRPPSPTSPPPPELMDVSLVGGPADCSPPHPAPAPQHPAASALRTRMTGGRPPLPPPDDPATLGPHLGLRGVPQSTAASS
# Description: as §1
# CDK9 = molecular target: T4, CDK9 (Homo sapiens, UniProt P50750); assay: Kinase TR-FRET assay, CDK9; type: biochemical; conditions: full-length human kinase, 10 μM ATP
# T4 construct: full-length human kinases from Carna Biosciences; purchased Carna Biosciences 04-110
# T4 sequence (P50750 whole entry): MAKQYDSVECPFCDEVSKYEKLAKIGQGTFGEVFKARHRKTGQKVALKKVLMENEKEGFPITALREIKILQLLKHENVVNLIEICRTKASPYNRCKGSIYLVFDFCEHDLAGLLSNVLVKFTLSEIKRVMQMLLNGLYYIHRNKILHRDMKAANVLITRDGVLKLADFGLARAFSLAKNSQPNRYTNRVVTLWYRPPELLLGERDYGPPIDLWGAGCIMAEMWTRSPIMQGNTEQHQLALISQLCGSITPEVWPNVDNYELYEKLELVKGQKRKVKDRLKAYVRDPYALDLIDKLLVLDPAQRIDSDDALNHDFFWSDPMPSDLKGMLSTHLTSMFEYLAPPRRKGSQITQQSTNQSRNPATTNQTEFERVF
# T4 sequence (O60563 whole entry partner): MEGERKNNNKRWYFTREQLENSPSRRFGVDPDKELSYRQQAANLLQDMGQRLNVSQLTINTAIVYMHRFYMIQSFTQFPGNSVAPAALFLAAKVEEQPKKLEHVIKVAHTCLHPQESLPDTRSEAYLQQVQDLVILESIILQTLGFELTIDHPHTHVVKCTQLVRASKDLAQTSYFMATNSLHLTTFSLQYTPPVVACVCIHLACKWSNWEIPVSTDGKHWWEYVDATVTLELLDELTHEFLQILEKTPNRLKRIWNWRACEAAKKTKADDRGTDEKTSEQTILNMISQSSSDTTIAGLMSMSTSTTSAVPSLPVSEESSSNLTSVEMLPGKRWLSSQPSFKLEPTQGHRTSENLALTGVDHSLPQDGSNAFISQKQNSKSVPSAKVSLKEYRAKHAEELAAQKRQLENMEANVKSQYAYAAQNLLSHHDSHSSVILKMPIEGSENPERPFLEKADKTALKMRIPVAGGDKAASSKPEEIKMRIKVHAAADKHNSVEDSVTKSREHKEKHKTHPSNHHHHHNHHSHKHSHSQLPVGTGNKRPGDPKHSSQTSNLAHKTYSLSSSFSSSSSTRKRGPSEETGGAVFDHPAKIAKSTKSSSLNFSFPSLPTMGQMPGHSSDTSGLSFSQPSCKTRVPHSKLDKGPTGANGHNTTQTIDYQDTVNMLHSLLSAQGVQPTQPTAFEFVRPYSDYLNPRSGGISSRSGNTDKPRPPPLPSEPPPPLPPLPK
# Description: Inhibition of the enzymatic activity of human kinases was evaluated in a Time-Resolved Fluorescence Resonance Energy Transfer (TR-FRET) assay in 384-well reaction plates. In this assay, full-length human kinases from Carna Biosciences—DYRK1A (NM_001396, ref. 04-130; 2.0 ng/μl), DYRK1B (NM_004714, ref. 04-131; 1.2 ng/p), CLK1 (NM_001162407, ref. 04-126; 0.7 ng/μl), CDK9 (NM_001261, ref. 04-110; 0.9 ng/μl), or GSK3β (NM_001146156, ref. 04-141; 2.0 ng/μl—were incubated for 40 minutes (DYRK1A and DYRK1B) or 100 minutes (CLK1, CDK9 and GSK3β) at room temperature with ATP (Sigma A2383, 10 μM) and a ULight™-labelled human Myelin Basic Protein (MBP) peptide substrate (Perkin Elmer TRF0109, 100 nM) in a reaction buffer composed of 50 mM HEPES pH7.4, 1 mM EGTA, 10 mM MgCl2, 2 mM DTT and 0.01% Tween20. Test compounds of the invention were added in reaction buffer at a range of concentrations from 0.1 nM to 30 μM. Following addition of EDTA (Sigma E7889, 10 mM) to stop the reaction, Europium-labelled mouse monoclonal antibody recognizing phospho-Thr232 in MBP (Perkin Elmer TRF0201, 1 nM) was added. After one hour, the reaction plates were read using a fluorescence reader (EnVision®, Perkin Elmer) at 620 nm and 665 nm (excitation at 340 nm); when the Europium donor fluorophore is excited by light at 340 nm, an energy transfer (620 nm) to the acceptor occurs, which will then emit light at 665 nm.
IC50 (DYRK1A [1]),IC50 (DYRK1A [2]),IC50 [3],IC50 (DYRK1B),IC50 (CDK9),SMILES
0.008 µM,0.2 µM,0.01 µM,0.001 µM,0.383 µM,"CCCn1c(C)nc2ccc(-c3cc(N)nc(N)c3)nc21 [Example 2, 4-(2-methyl-3-propyl-3H-imidazo[4,5-b]pyridin-5-yl)pyridine-2,6-diamine]"
0.155 µM,,0.493 µM,0.149 µM,1.09 µM,"Cc1nc2ccc(-c3cc(N)nc(N)c3)nc2n1Cc1ccccn1 [Example 6, 4-[2-methyl-3-(pyridin-2-ylmethyl)-3H-imidazo[4,5-b]pyridin-5-yl]pyridine-2,6-diamine]"
0.004 µM,0.17 µM,0.011 µM,,3.45 µM,"Cc1nc2ccc(-c3cc(N)nc(N)c3)nc2n1CC1CC1 [Example 11, 4-[3-(cyclopropylmethyl)-2-methyl-3H-imidazo[4,5-b]pyridin-5-yl]pyridine-2,6-diamine]"
0.012 µM,,0.035 µM,0.019 µM,> 10 µM,"Cc1nc2ccc(-c3cc(N)nc(N)c3)nc2n1CCCN1CCCC1=O [Example 13, 1-{3-[5-(2,6-diaminopyridin-4-yl)-2-methyl-3H-imidazo[4,5-b]pyridin-3-yl]propyl}pyrrolidin-2-one]"
0.004 µM,0.11 µM,0.011 µM,0.008 µM,0.47 µM,"Cc1nc2ccc(-c3cc(N)nc(N)c3)nc2n1CCC1CCCCC1 [Example 15, 4-[3-(2-cyclohexylethyl)-2-methyl-3H-imidazo[4,5-b]pyridin-5-yl]pyridine-2,6-diamine]"
0.016 µM,,0.032 µM,0.016 µM,2.92 µM,"Cc1nc2ccc(-c3cc(N)nc(N)c3)nc2n1Cc1cccs1 [Example 20, 4-[2-methyl-3-(thiophen-2-ylmethyl)-3H-imidazo[4,5-b]pyridin-5-yl]pyridine-2,6-diamine]"
0.004 µM,,0.007 µM,0.006 µM,1.82 µM,"Cc1nc2ccc(-c3cc(N)nc(N)c3)nc2n1CCc1cccs1 [Example 26, 4-{2-methyl-3-[2-(thiophen-2-yl)ethyl]-3H-imidazo[4,5-b]pyridin-5-yl}pyridine-2,6-diamine]"
0.015 µM,,0.056 µM,0.005 µM,> 10 µM,"Cc1nc2ccc(-c3cc(N)nc(N)c3)nc2n1CCOc1cccc2ccccc12 [Example 27, 4-{2-methyl-3-[2-(naphthalen-1-yloxy)ethyl]-3H-imidazo[4,5-b]pyridin-5-yl}pyridine-2,6-diamine]"
0.017 µM,,0.018 µM,0.125 µM,3.57 µM,"Cc1nc2ccc(-c3cc(N)nc(N)c3)nc2n1CC(C)(C)C [Example 30, 4-[3-(2,2-dimethylpropyl)-2-methyl-3H-imidazo[4,5-b]pyridin-5-yl]pyridine-2,6-diamine]"
0.011 µM,,0.046 µM,0.003 µM,> 10 µM,"CCCCn1c(C)nc2ccc(-c3cc(N)nc(NCc4ccccc4)c3)nc21 [Example 231, N-benzyl-4-(3-butyl-2-methyl-3H-imidazo[4,5-b]pyridin-5-yl)pyridine-2,6-diamine]"
0.005 µM,,0.045 µM,0.005 µM,0.718 µM,"Cc1nc2ccc(-c3ccnc(N)c3)nc2n1CCC1CCCCC1 [Example 237, 4-[3-(2-cyclohexylethyl)-2-methyl-3H-imidazo[4,5-b]pyridin-5-yl]pyridin-2-amine]"

# Continued, compound first:
SMILES,IC50 (DYRK1A [1]),IC50 (DYRK1A [2]),IC50 [3],IC50 (DYRK1B),IC50 (CDK9)
"Cc1nc2ccc(-c3cc(N)nc(N)c3)nc2n1C1CCCC1 [Example 1, 4-(3-cyclopentyl-2-methyl-3H-imidazo[4,5-b]pyridin-5-yl)pyridine-2,6-diamine]",0.013 µM,0.08 µM,0.01 µM,0.004 µM,0.314 µM
"Cc1nc2ccc(-c3cc(N)nc(N)c3)nc2n1Cc1ccncc1 [Example 5, 4-[2-methyl-3-(pyridin-4-ylmethyl)-3H-imidazo[4,5-b]pyridin-5-yl]pyridine-2,6-diamine]",0.006 µM,1 µM,0.02 µM,,6.56 µM
"Cc1nc2ccc(-c3cc(N)nc(N)c3)nc2n1Cc1ccc(F)cc1 [Example 10, 4-[3-(4-fluorobenzyl)-2-methyl-3H-imidazo[4,5-b]pyridin-5-yl]pyridine-2,6-diamine]",0.032 µM,,0.079 µM,0.055 µM,4.58 µM
"CC(=O)Nc1ccc(CCn2c(C)nc3ccc(-c4cc(N)nc(N)c4)nc32)cc1 [Example 24, N-(4-{2-[5-(2,6-diaminopyridin-4-yl)-2-methyl-3H-imidazo[4,5-b]pyridin-3-yl]ethyl}phenyl)acetamide]",0.005 µM,,0.008 µM,0.015 µM,3.53 µM
"CCC(C)Cn1c(C)nc2ccc(-c3cc(N)nc(N)c3)nc21 (stereo not shown) [Example 34, 4-[2-methyl-3-(2-methylbutyl)-3H-imidazo[4,5-b]pyridin-5-yl]pyridine-2,6-diamine]",0.03 µM,,0.01 µM,0.015 µM,1.4 µM
"Cc1nc2ccc(-c3cc(N)nc(N)c3)nc2n1Cc1ccccc1Cl [Example 47, 4-[3-(2-chlorobenzyl)-2-methyl-3H-imidazo[4,5-b]pyridin-5-y]pyridine-2,6-diamine]",0.003 µM,,0.025 µM,0.046 µM,0.728 µM
"Cc1nc2ccc(-c3cc(N)nc(N)c3)nc2n1Cc1cc(Cl)ccc1Cl [Example 57, 4-[3-(2,5-dichlorobenzyl)-2-methyl-3H-imidazo[4,5-b]pyridin-5-yl]pyridine-2,6-diamine]",0.026 µM,,0.085 µM,0.005 µM,> 10 µM
"Cc1nc2ccc(-c3cc(N)nc(N)c3)nc2n1CCc1ccc(Cl)cc1Cl [Example 59, 4-{3-[2-(2,4-dichlorophenyl)ethyl]-2-methyl-3H-imidazo[4,5-b]pyridin-5-yl}pyridine-2,6-diamine]",0.002 µM,,0.021 µM,0.003 µM,> 10 µM
"CCCC(C)n1c(C)nc2ccc(-c3cc(N)nc(N)c3)nc21 (stereo not shown) [Example 64, 4-[2-methyl-3-(pentan-2-yl)-3H-imidazo[4,5-b]pyridin-5-yl]pyridine-2,6-diamine]",0.009 µM,,0.026 µM,0.03 µM,> 10 µM
"CCC(CC)n1c(C)nc2ccc(-c3cc(N)nc(N)c3)nc21 [Example 68, 4-[2-methyl-3-(pentan-3-yl)-3H-imidazo[4,5-b]pyridin-5-yl]pyridine-2,6-diamine]",0.029 µM,,0.193 µM,0.132 µM,> 10 µM
"CCCCn1c(C)nc2ccc(-c3cc(N)nc(NC(=O)Cc4ccccc4)c3)nc21 [Example 235, N-[6-amino-4-(3-butyl-2-methyl-3H-imidazo[4,5-b]pyridin-5-yl)pyridin-2-yl]-2-phenylacetamide]",0.013 µM,,0.207 µM,0.091 µM,> 10 µM
